Results published in doi:10.1101/322404v1, “Discovery of a novel stereospecific β-hydroxyacyl-CoA lyase/thioesterase shared by three metabolic pathways in Mycobacterium tuberculosis” (biorxiv, 2018).

Key:
Rv2498c [1] = molecular target: T1, Rv2498c (Mycobacterium tuberculosis, UniProt P9WPE1)
T1 construct: gene citE

Rv2498c [2] = molecular target: T1, Rv2498c; remark: listed apart in the source
Rv2498c [3] = molecular target: T1, Rv2498c; remark: listed apart in the source
Rv2498c [4] = molecular target: T1, Rv2498c; remark: listed apart in the source

T1 sequence (P9WPE1 whole entry): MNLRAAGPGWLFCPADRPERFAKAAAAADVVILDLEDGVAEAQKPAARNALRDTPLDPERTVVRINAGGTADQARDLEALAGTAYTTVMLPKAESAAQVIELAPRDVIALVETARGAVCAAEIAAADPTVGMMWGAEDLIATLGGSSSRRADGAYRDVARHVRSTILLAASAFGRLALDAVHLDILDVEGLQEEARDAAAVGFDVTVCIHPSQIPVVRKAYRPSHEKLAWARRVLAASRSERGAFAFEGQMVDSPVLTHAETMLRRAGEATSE

For `CC(C)(COP(=O)(O)OP(=O)(O)OC[C@H]1O[C@@H](n2cnc3c(N)ncnc32)[C@H](O)[C@@H]1OP(=O)(O)O)[C@@H](O)C(=O)NCCC(=O)NCCSC(=O)C[C@](C)(O)CC(=O)O` [(R)-HMG-CoA], the “HPLC lyase assay and 1H NMR of products” value (Rv2498c [1]) was “we found that Rv2498c is a lyase specific for the (R)-HMG-CoA”.

For `CC(C)(COP(=O)(O)OP(=O)(O)OC[C@H]1O[C@@H](n2cnc3c(N)ncnc32)[C@H](O)[C@@H]1OP(=O)(O)O)[C@@H](O)C(=O)NCCC(=O)NCCSC(=O)C[C@](C)(O)C(=O)O` [(S)-citramalyl-CoA], the “X-ray crystal structure, 1.83 A” value (Rv2498c [2]) was “two citramalyl-CoA molecules”.

With `CC(C)(COP(=O)(O)OP(=O)(O)OC[C@H]1O[C@@H](n2cnc3c(N)ncnc32)[C@H](O)[C@@H]1OP(=O)(O)O)[C@@H](O)C(=O)NCCC(=O)NCCSC(=O)C[C@H](O)C(=O)O` [(S)-malyl-CoA] the HPLC thioesterase assay (Rv2498c [3]) was “Rv2498c was found to subsequently catalyse the hydrolysis of the thioester bond of (S)-malyl-CoA”.

For `CC(C)(COP(=O)(O)OP(=O)(O)OC[C@H]1O[C@@H](n2cnc3c(N)ncnc32)[C@H](O)[C@@H]1OP(=O)(O)O)[C@@H](O)C(=O)NCCC(=O)NCCS` [CoA], the “X-ray crystal structure, 1.72 A (6ARB) and 2.04 A (6AS5)” value (Rv2498c [4]) was “A magnesium ion, coordinated pyruvate, and CoA molecule were observed in the active sites”.
